Like-named read-outs stand apart in the source and are kept apart here.
How the values were obtained:
Type in all cases: in vivo
Myzus persicae = assay: whole plant or invertebrate
Excerpt: (§1) If the actual kill rate is greater than that calculated, the kill rate of the combination is superadditive, which means that a synergistic effect is present. In this case, the kill rate actually observed must be greater than the value calculated from the above formula for the expected kill rate (E).
(§2) • 78 parts by weight of acetone • 1.5 parts by weight of dimethylformamide Emulsifier: 0.5 part by weight of alkylaryl polyglycol ether
(§3) To produce an appropriate active ingredient formulation, 1 part by weight of active ingredient is mixed with the stated amounts of solvent and emulsifier, and the concentrate is diluted with emulsifier-containing water to the desired concentration.
After the desired time, the kill in % is determined. 100% means that all aphids have been killed; 0% means that no aphids have been killed. The kill rates determined are entered into Colby's formula.

Phaedon cochleariae = assay: whole plant or invertebrate
Excerpt: (§4) The expected action for a given combination of two active ingredients can be calculated according to S. R. Colby, Weeds 15 (1967), 20-22 as follows:
(§5) • X is the kill rate, expressed in % of the untreated control, in the case of use of active ingredient A in an application rate of m g/ha or in a concentration of m ppm, • Y is the kill rate, expressed in % of the untreated control, in the case of use of active ingredient B in an application rate of n g/ha or in a concentration of n ppm, and • E is the kill rate, expressed in % of the untreated control, in the case of use of active ingredients A and B in application rates of m and n g/ha or in a concentration of m and n ppm, then
as §1, §2, §3
Cabbage leaves (Brassica oleracea) are treated by spraying with the active ingredient formulation of the desired concentration and populated with larvae of the mustard beetle (Phaedon cochleariae) while the leaves are still moist.
After the desired period of time, the kill rate in % is determined. 100% means that all beetle larvae have been killed; 0% means that none of the beetle larvae have been killed. The kill rates determined are entered into Colby's formula.

Tetranychus urticae = assay: Tetranychus test (OP-resistant/spray treatment); settings: for pest or weed control at 4 g/ha / Kill rate in % after 6 d: after 6 d
Excerpt: as §4, §5, §1, §2, §3
Discs of bean leaves (Phaseolus vulgaris) infested by all stages of the two-spotted spider mite (Tetranychus urticae) are sprayed with an active ingredient formulation of the desired concentration.
After the desired period of time, the effect in % is determined. 100% means that all of the spider mites have been killed; 0% means that none of the spider mites have been killed.

Spodoptera frugiperda = assay: whole plant or invertebrate
Excerpt: as §1, §2, §3
After the desired time, the kill in % is determined. 100% means that all caterpillars have been killed; 0% means that none of the caterpillars have been killed. The kill rates determined are entered into Colby's formula.

[1] = Tetranychus urticae, 144 h, 4 g/ha, applied individually, read-out: Kill rate in % after 6 d
[2] = Spodoptera frugiperda, 144 h, 0.032 g/ha, after 6 d, read-out: Kill rate in % after 6 d
[3] = Phaedon cochleariae, 144 h, after 6 d, read-out: Kill rate in % after 6 d
[4] = Spodoptera frugiperda, 144 h, 0.8 g/ha, after 6 d, read-out: Kill rate in % after 6 d
[5] = Phaedon cochleariae, 144 h, 4 g/ha, after 6 d, read-out: Kill rate in % after 6 d
[6] = Spodoptera frugiperda, 144 h, 4 g/ha, after 6 d, read-out: Kill rate in % after 6 d
[7] = Myzus persicae, 144 h, 4 g/ha, after 6 d, read-out: Kill rate in % after 6 d

Molecule: CCc1nn(C)c(C(=O)NCc2ccc(C(C)(C)C)cc2)c1Cl [tebufenpyrad]
- pest or weed control at 0.8 g/ha (Myzus persicae; Myzus persicae, 24 h, 0.8 g/ha, after 1 d, read-out: Kill rate in % after 1 d): 0%
- pest or weed control at 0.16 g/ha (Myzus persicae; Myzus persicae, 144 h, 0.16 g/ha, after 6 d, read-out: Kill rate in % after 6 d): 0%
- pest or weed control at 0.16 g/ha (Phaedon cochleariae; Phaedon cochleariae, 144 h, 0.16 g/ha, after 6 d, read-out: Kill rate in % after 6 d): 0%
- pest or weed control at 0.16 g/ha (Tetranychus urticae; Tetranychus urticae, 48 h, 0.16 g/ha, after 2 d, applied individually, read-out: Kill rate in % after 2 d): 0%
- pest or weed control at 4 g/ha (Tetranychus urticae; [1]): 40%

Molecule: Cc1nn(C)c(Oc2ccccc2)c1C=NOCc1ccc(C(=O)OC(C)(C)C)cc1 [fenpyroximate]
- Kill rate in % after 2 d (Spodoptera frugiperda; 0.8 g/ha): 0%
- pest or weed control at 0.8 g/ha (Tetranychus urticae; Tetranychus urticae, 48 h, 0.8 g/ha, after 2 d, applied individually, read-out: Kill rate in % after 2 d): 0%

Molecule: CC1(C)[C@H](C(=O)O[C@H](C#N)c2cccc(Oc3ccccc3)c2)[C@@H]1/C=C(\Cl)C(F)(F)F [L-cyhalothrin]
- pest or weed control at 0.16 g/ha (Myzus persicae; Myzus persicae, 24 h, 0.16 g/ha, after 1 d, read-out: Kill rate in % after 1 d): 0%
- pest or weed control at 0.032 g/ha (Spodoptera frugiperda; [2]): 0%
- pest or weed control at 4 g/ha (Tetranychus urticae; [1]): 20%

Molecule: spinosad
- Kill rate in % after 6 d (Spodoptera frugiperda; 0.16 g/ha, after 6 d): 0%
- Kill rate in % after 2 d (Tetranychus urticae; 20 g/ha, after 2 d, applied individually): 20%

Molecule: O=C(NC(=O)c1c(F)cccc1F)Nc1ccc(OC(F)(F)C(F)OC(F)(F)F)c(Cl)c1 (stereo not drawn) [novaluron]
- pest or weed control at 0.8 g/ha (Phaedon cochleariae; [3]): 0%
- pest or weed control at 0.8 g/ha (Spodoptera frugiperda; [4]): 67%

Molecule: spinetoram
- Kill rate in % after 6 d (Myzus persicae; 0.8 g/ha, after 6 d): 0%
- Kill rate in % after 1 d (Myzus persicae; 4 g/ha, after 1 d): 0%
- Kill rate in % after 6 d (Phaedon cochleariae; 0.16 g/ha, after 6 d): 0%
- Kill rate in % after 6 d (Tetranychus urticae; 4 g/ha, applied individually): 20%

Molecule: Nc1nc(N)nc(NC2CC2)n1 [cyromazine]
- pest or weed control at 100 g/ha (Myzus persicae; Myzus persicae, 24 h, 100 g/ha, after 1 d, read-out: Kill rate in % after 1 d): 0%
- pest or weed control at 4 g/ha (Phaedon cochleariae; [5]): 0%
- pest or weed control at 4 g/ha (Spodoptera frugiperda; [6]): 0%

Molecule: CCC(C)(C)C(=O)OC1=C(c2ccc(Cl)cc2Cl)C(=O)OC12CCCCC2 [spirodiclofen]
- Kill rate in % after 1 d (Myzus persicae; 20 g/ha, after 1 d): 0%
- Kill rate in % after 1 d (Myzus persicae; 100 g/ha, after 1 d): 0%
- Kill rate in % after 6 d (Phaedon cochleariae; 4 g/ha, after 6 d): 0%
- Kill rate in % after 2 d (Tetranychus urticae; 100 g/ha, after 2 d, applied individually): 0%

Molecule: FC(F)(F)c1ccc(OCCCOc2c(Cl)cc(OCC=C(Cl)Cl)cc2Cl)nc1 [pyridalyl]
- pest or weed control at 4 g/ha (Myzus persicae; Myzus persicae, 24 h, 4 g/ha, after 1 d, read-out: Kill rate in % after 1 d): 0%
- pest or weed control at 4 g/ha (Phaedon cochleariae; [5]): 0%
- pest or weed control at 4 g/ha (Spodoptera frugiperda; [6]): 0%

Molecule: abamectin
- Kill rate in % after 1 d (Myzus persicae; 0.16 g/ha, after 1 d): 0%
- Kill rate in % after 6 d (Phaedon cochleariae; 0.032 g/ha, after 6 d): 0%
- Kill rate in % after 6 d (Tetranychus urticae; 0.0064 g/ha, applied individually): 0%
- Kill rate in % after 6 d (Tetranychus urticae; 0.032 g/ha, applied individually): 80%

Molecule: COCCOC(=O)C(C#N)(C(=O)c1ccccc1C(F)(F)F)c1ccc(C(C)(C)C)cc1 (stereo not drawn) [cyflumetofen]
- pest or weed control at 4 g/ha (Phaedon cochleariae; [5]): 0%
- pest or weed control at 4 g/ha (Spodoptera frugiperda; [6]): 17%

Molecule: emamectin benzoate
- Kill rate in % after 1 d (Myzus persicae; 0.16 g/ha, after 1 d): 0%
- Kill rate in % after 1 d (Myzus persicae; 0.8 g/ha, after 1 d): 0%
- Kill rate in % after 6 d (Phaedon cochleariae; 0.032 g/ha, after 6 d): 0%
- Kill rate in % after 2 d (Tetranychus urticae; 0.032 g/ha, after 2 d, applied individually): 0%

Molecule: O=C(NC(=O)c1c(F)cccc1F)Nc1ccc(Oc2ccc(C(F)(F)F)cc2Cl)cc1F [flufenoxuron]
- pest or weed control at 0.8 g/ha (Myzus persicae; Myzus persicae, 144 h, 0.8 g/ha, after 6 d, read-out: Kill rate in % after 6 d): 0%
- pest or weed control at 0.8 g/ha (Spodoptera frugiperda; [4]): 0%

Molecule: COc1cccc(C(=O)NN(C(=O)c2cc(C)cc(C)c2)C(C)(C)C)c1C [methoxyfenozide]
- pest or weed control at 4 g/ha (Myzus persicae; [7]): 0%
- pest or weed control at 0.8 g/ha (Phaedon cochleariae; [3]): 0%
- pest or weed control at 0.8 g/ha (Spodoptera frugiperda; [4]): 0%

Molecule: CNC(=O)c1cc(Cl)cc(C)c1NC(=O)c1cc(Br)nn1-c1ncccc1Cl [chloranthraniliprole]
- pest or weed control at 0.032 g/ha (Spodoptera frugiperda; [2]): 50%

Molecule: CC1(C)[C@H](C(=O)O[C@H](C#N)c2cccc(Oc3ccccc3)c2)[C@@H]1/C=C(\Cl)C(F)(F)F [gamma-cyhalothrin]
- Kill rate in % after 1 d (Myzus persicae; 0.032 g/ha, after 1 d): 0%
- Kill rate in % after 2 d (Spodoptera frugiperda; 0.032 g/ha): 17%
- Kill rate in % after 2 d (Tetranychus urticae; 0.8 g/ha, after 2 d, applied individually): 0%

Molecule: CCc1ccc(C(=O)NN(C(=O)c2cc(C)cc(C)c2)C(C)(C)C)cc1 [tebufenozide]
- pest or weed control at 4 g/ha (Myzus persicae; [7]): 0%
- Kill rate in % after 2 d (Phaedon cochleariae; 4 g/ha): 0%
- pest or weed control at 0.16 g/ha (Spodoptera frugiperda; Spodoptera frugiperda, 144 h, 0.16 g/ha, after 6 d, read-out: Kill rate in % after 6 d): 0%

Molecule: O=C(NC(=O)c1c(F)cccc1F)Nc1cc(Cl)c(OC(F)(F)C(F)C(F)(F)F)cc1Cl (stereo not drawn) [lufenuron]
- pest or weed control at 0.8 g/ha (Spodoptera frugiperda; [4]): 17%
- pest or weed control at 100 g/ha (Tetranychus urticae; Tetranychus urticae, 48 h, 100 g/ha, after 2 d, applied individually, read-out: Kill rate in % after 2 d): 0%

Molecule: COC(=O)N(C(=O)N1CO[C@@]2(C(=O)OC)Cc3cc(Cl)ccc3C2=N1)c1ccc(OC(F)(F)F)cc1 [indoxacarb]
- Kill rate in % after 1 d (Myzus persicae; 20 g/ha, after 1 d): 0%
- Kill rate in % after 2 d (Spodoptera frugiperda; 0.8 g/ha): 50%

Molecule: CNC(=O)Oc1cccc2ccccc12 [carbaryl]
- pest or weed control at 500 g/ha (Myzus persicae; Myzus persicae, 24 h, read-out: Kill rate in % after 1 d): 0%
- pest or weed control at 4 g/ha (Spodoptera frugiperda; Spodoptera frugiperda, 144 h, read-out: Kill rate in % after 6 d): 0%
- pest or weed control at 500 g/ha (Tetranychus urticae; Tetranychus urticae, 48 h, read-out: Kill rate in % after 2 d): 10%
- pest or weed control at 500 g/ha (Tetranychus urticae; Tetranychus urticae, 144 h, read-out: Kill rate in % after 6 d): 20%

Molecule: O=S(=O)(CCC(F)=C(F)F)c1ncc(Cl)s1 [fluensulfone]
- Kill rate in % after 6 d (Spodoptera frugiperda; 2000 g/ha, after 6 d): 0%
- Kill rate in % after 2 d (Tetranychus urticae; 2000 g/ha, after 2 d, applied individually): 0%

Molecule: CCCSP(=O)(OCC)Oc1ccc(Br)cc1Cl (stereo not drawn) [profenophos]
- Kill rate in % after 2 d (Phaedon cochleariae; 4 g/ha): 0%
- pest or weed control at 4 g/ha (Phaedon cochleariae; [5]): 0%
- pest or weed control at 4 g/ha (Spodoptera frugiperda; [6]): 17%

Source: patent publication US20160037775A1, “ACTIVE INGREDIENT COMBINATIONS HAVING INSECTICIDAL AND ACARICIDAL PROPERTIES” (priority 2010, published 2016)
